{"source": "ChEMBL document CHEMBL3046781", "about": "“Resistance of Helicoverpa assulta (Guenée) (Lepidoptera: Noctuidae) to fenvalerate, phoxim and methomyl in China” (2009)", "assay_type_in_all_cases": "functional", "key": {"[1]": {"tested_on": "Helicoverpa assulta", "test": "Insecticidal activity against sixth-instar larvae of Helicoverpa assulta YN2 at 1.8 to 183360 mg/l after 48 hr by chi-squared analysis"}, "[2]": {"tested_on": "Helicoverpa assulta", "test": "Insecticidal activity against sixth-instar larvae of Helicoverpa assulta GZ4 at 1.8 to 183360 mg/l after 48 hr by chi-squared analysis"}, "[3]": {"tested_on": "Helicoverpa assulta", "test": "Insecticidal activity against sixth-instar larvae of Helicoverpa assulta GZ2 at 1.8 to 183360 mg/l after 48 hr by chi-squared analysis"}, "[4]": {"tested_on": "Helicoverpa assulta", "test": "Insecticidal activity against sixth-instar larvae of Helicoverpa assulta HB1 at 1.8 to 183360 mg/l after 48 hr by chi-squared analysis"}, "[5]": {"tested_on": "Helicoverpa assulta", "test": "Resistance factor, ratio of LD50 for sixth-instar larvae of Helicoverpa assulta FJ2 to LD50 for sixth-instar larvae of Helicoverpa assulta at 1.8 to 183360 mg/l"}, "[6]": {"tested_on": "Helicoverpa assulta", "test": "Resistance factor, ratio of LD50 for sixth-instar larvae of Helicoverpa assulta YN7 to LD50 for sixth-instar larvae of Helicoverpa assulta at 1.8 to 183360 mg/l"}, "[7]": {"tested_on": "Helicoverpa assulta", "test": "Insecticidal activity against sixth-instar larvae of Helicoverpa assulta AH2 at 1.8 to 183360 mg/l after 48 hr by chi-squared analysis"}, "[8]": {"tested_on": "Helicoverpa assulta", "test": "Insecticidal activity against sixth-instar larvae of Helicoverpa assulta FJ3 at 1.8 to 183360 mg/l after 48 hr by chi-squared analysis"}, "[9]": {"tested_on": "Helicoverpa assulta", "test": "Insecticidal activity against sixth-instar larvae of Helicoverpa assulta GZ5 at 1.8 to 183360 mg/l after 48 hr by chi-squared analysis"}, "[10]": {"tested_on": "Helicoverpa assulta", "test": "Insecticidal activity against sixth-instar larvae of Helicoverpa assulta SD2 at 1.8 to 183360 mg/l after 48 hr by chi-squared analysis"}, "[11]": {"tested_on": "Helicoverpa assulta", "test": "Insecticidal activity against sixth-instar larvae of Helicoverpa assulta YN7 at 1.8 to 183360 mg/l after 48 hr by chi-squared analysis"}, "[12]": {"tested_on": "Helicoverpa assulta", "test": "Insecticidal activity against sixth-instar larvae of Helicoverpa assulta YN7 at 39 to 12630 mg/l after 48 hr by chi-squared analysis"}, "[13]": {"tested_on": "Helicoverpa assulta", "test": "Insecticidal activity against sixth-instar larvae of Helicoverpa assulta YN8 at 39 to 12630 mg/l after 48 hr by chi-squared analysis"}, "[14]": {"tested_on": "Helicoverpa assulta", "test": "Resistance factor, ratio of LD50 for sixth-instar larvae of Helicoverpa assulta FJ2 to LD50 for sixth-instar larvae of Helicoverpa assulta at 39 to 12630 mg/l"}, "[15]": {"tested_on": "Helicoverpa assulta", "test": "Resistance factor, ratio of LD50 for sixth-instar larvae of Helicoverpa assulta YN8 to LD50 for sixth-instar larvae of Helicoverpa assulta at 39 to 12630 mg/l"}, "[16]": {"tested_on": "Helicoverpa assulta", "test": "Insecticidal activity against sixth-instar larvae of Helicoverpa assulta YN5 at 39 to 12630 mg/l after 48 hr by chi-squared analysis"}, "[17]": {"tested_on": "Helicoverpa assulta", "test": "Resistance factor, ratio of LD50 for sixth-instar larvae of Helicoverpa assulta YN4 to LD50 for sixth-instar larvae of Helicoverpa assulta at 39 to 12630 mg/l"}, "[18]": {"tested_on": "Helicoverpa assulta", "test": "Resistance factor, ratio of LD50 for sixth-instar larvae of Helicoverpa assulta GZ3 to LD50 for sixth-instar larvae of Helicoverpa assulta at 39 to 12630 mg/l"}, "[19]": {"tested_on": "Helicoverpa assulta", "test": "Insecticidal activity against sixth-instar larvae of Helicoverpa assulta AH1 at 39 to 12630 mg/l after 48 hr by chi-squared analysis"}, "[20]": {"tested_on": "Helicoverpa assulta", "test": "Insecticidal activity against sixth-instar larvae of Helicoverpa assulta YN4 at 39 to 12630 mg/l after 48 hr by chi-squared analysis"}, "[21]": {"tested_on": "Helicoverpa assulta", "test": "Resistance factor, ratio of LD50 for sixth-instar larvae of Helicoverpa assulta YN2 to LD50 for sixth-instar larvae of Helicoverpa assulta at 39 to 12630 mg/l"}, "[22]": {"tested_on": "Helicoverpa assulta", "test": "Resistance factor, ratio of LD50 for sixth-instar larvae of Helicoverpa assulta HB2 to LD50 for sixth-instar larvae of Helicoverpa assulta at 39 to 12630 mg/l"}, "[23]": {"tested_on": "Helicoverpa assulta", "test": "Resistance factor, ratio of LD50 for sixth-instar larvae of Helicoverpa assulta HB2 to LD50 for sixth-instar larvae of Helicoverpa assulta at 21 to 3390 mg/l"}, "[24]": {"tested_on": "Helicoverpa assulta", "test": "Insecticidal activity against sixth-instar larvae of Helicoverpa assulta YN4 at 21 to 3390 mg/l after 48 hr by chi-squared analysis"}, "[25]": {"tested_on": "Helicoverpa assulta", "test": "Resistance factor, ratio of LD50 for sixth-instar larvae of Helicoverpa assulta YN3 to LD50 for sixth-instar larvae of Helicoverpa assulta at 21 to 3390 mg/l"}, "[26]": {"tested_on": "Helicoverpa assulta", "test": "Insecticidal activity against sixth-instar larvae of Helicoverpa assulta GZ3 at 21 to 3390 mg/l after 48 hr by chi-squared analysis"}, "[27]": {"tested_on": "Helicoverpa assulta", "test": "Resistance factor, ratio of LD50 for sixth-instar larvae of Helicoverpa assulta FJ1 to LD50 for sixth-instar larvae of Helicoverpa assulta at 21 to 3390 mg/l"}, "[28]": {"tested_on": "Helicoverpa assulta", "test": "Insecticidal activity against sixth-instar larvae of Helicoverpa assulta YN5 at 21 to 3390 mg/l after 48 hr by chi-squared analysis"}, "[29]": {"tested_on": "Helicoverpa assulta", "test": "Resistance factor, ratio of LD50 for sixth-instar larvae of Helicoverpa assulta YN2 to LD50 for sixth-instar larvae of Helicoverpa assulta at 21 to 3390 mg/l"}, "[30]": {"tested_on": "Helicoverpa assulta", "test": "Resistance factor, ratio of LD50 for sixth-instar larvae of Helicoverpa assulta AH3 to LD50 for sixth-instar larvae of Helicoverpa assulta at 21 to 3390 mg/l"}, "[31]": {"tested_on": "Helicoverpa assulta", "test": "Insecticidal activity against sixth-instar larvae of Helicoverpa assulta YN2 at 21 to 3390 mg/l after 48 hr by chi-squared analysis"}, "[32]": {"tested_on": "Helicoverpa assulta", "test": "Insecticidal activity against sixth-instar larvae of Helicoverpa assulta AH3 at 21 to 3390 mg/l after 48 hr by chi-squared analysis"}, "[33]": {"tested_on": "Helicoverpa assulta", "test": "Insecticidal activity against sixth-instar larvae of Helicoverpa assulta AH2 at 21 to 3390 mg/l after 48 hr by chi-squared analysis"}, "[34]": {"tested_on": "Helicoverpa assulta", "test": "Insecticidal activity against sixth-instar larvae of Helicoverpa assulta YN3 at 21 to 3390 mg/l after 48 hr by chi-squared analysis"}}, "data": [{"smiles": "CC(C)C(C(=O)OC(C#N)c1cccc(Oc2ccccc2)c1)c1ccc(Cl)cc1", "note": "(stereo not given) [FENVALERATE]", "values": [{"measurement": "LD90", "setting": "[1]", "value": 673, "unit": "µg/g"}, {"measurement": "LD50", "setting": "[1]; Helicoverpa assulta, YN2, 48 h", "value": 213, "unit": "mg/kg"}, {"measurement": "LD90", "setting": "[2]", "value": 133, "unit": "µg/g"}, {"measurement": "LD50", "setting": "[2]; Helicoverpa assulta, GZ4, 48 h", "value": 56.2, "unit": "mg/kg"}, {"measurement": "LD90", "setting": "[3]", "value": 558, "unit": "µg/g"}, {"measurement": "LD50", "setting": "[3]; Helicoverpa assulta, GZ2, 48 h", "value": 169, "unit": "mg/kg"}, {"measurement": "LD90", "setting": "[4]", "value": 7.34, "unit": "µg/g"}, {"measurement": "LD50", "setting": "[4]; Helicoverpa assulta, HB1, 48 h", "value": 0.944, "unit": "mg/kg"}, {"measurement": "Ratio", "setting": "[5]", "value": 12.9}, {"measurement": "Ratio", "setting": "[6]", "value": 1537}, {"measurement": "LD90", "setting": "[7]", "value": 259, "unit": "µg/g"}, {"measurement": "LD50", "setting": "[7]; Helicoverpa assulta, AH2, 48 h", "value": 67.3, "unit": "mg/kg"}, {"measurement": "LD90", "setting": "[8]", "value": 3.39, "unit": "µg/g"}, {"measurement": "LD50", "setting": "[8]; Helicoverpa assulta, FJ3, 48 h", "value": 1.47, "unit": "mg/kg"}, {"measurement": "LD90", "setting": "[9]", "value": 74.2, "unit": "µg/g"}, {"measurement": "LD50", "setting": "[9]; Helicoverpa assulta, GZ5, 48 h", "value": 30.6, "unit": "mg/kg"}, {"measurement": "LD90", "setting": "[10]", "value": 27.2, "unit": "µg/g"}, {"measurement": "LD50", "setting": "[10]; Helicoverpa assulta, SD2, 48 h", "value": 1.94, "unit": "mg/kg"}, {"measurement": "LD90", "setting": "[11]", "value": 507, "unit": "µg/g"}, {"measurement": "LD50", "setting": "[11]; Helicoverpa assulta, YN7, 48 h", "value": 249, "unit": "mg/kg"}]}, {"smiles": "CCOP(=S)(OCC)O/N=C(\\C#N)c1ccccc1", "note": "[PHOXIM]", "values": [{"measurement": "LD90", "setting": "[12]", "value": 131, "unit": "µg/g"}, {"measurement": "LD50", "setting": "[12]; Helicoverpa assulta, YN7, 48 h", "value": 41.8, "unit": "mg/kg"}, {"measurement": "LD90", "setting": "[13]", "value": 105, "unit": "µg/g"}, {"measurement": "LD50", "setting": "[13]; Helicoverpa assulta, YN8, 48 h", "value": 40.3, "unit": "mg/kg"}, {"measurement": "Ratio", "setting": "[14]", "value": 9.41}, {"measurement": "Ratio", "setting": "[15]", "value": 17.2}, {"measurement": "LD90", "setting": "[16]", "value": 83.8, "unit": "µg/g"}, {"measurement": "LD50", "setting": "[16]; Helicoverpa assulta, YN5, 48 h", "value": 25.7, "unit": "mg/kg"}, {"measurement": "Ratio", "setting": "[17]", "value": 16.9}, {"measurement": "Ratio", "setting": "[18]", "value": 8.94}, {"measurement": "LD90", "setting": "[19]", "value": 819, "unit": "µg/g"}, {"measurement": "LD50", "setting": "[19]; Helicoverpa assulta, AH1, 48 h", "value": 119, "unit": "mg/kg"}, {"measurement": "LD90", "setting": "[20]", "value": 94, "unit": "µg/g"}, {"measurement": "LD50", "setting": "[20]; Helicoverpa assulta, YN4, 48 h", "value": 39.6, "unit": "mg/kg"}, {"measurement": "Ratio", "setting": "[21]", "value": 14.9}, {"measurement": "Ratio", "setting": "[22]", "value": 5.04}]}, {"smiles": "CNC(=O)ON=C(C)SC", "note": "[METHOMYL]", "values": [{"measurement": "Ratio", "setting": "[23]", "value": 10.9}, {"measurement": "LD90", "setting": "[24]", "value": 62.2, "unit": "µg/g"}, {"measurement": "LD50", "setting": "[24]; Helicoverpa assulta, YN4, 48 h", "value": 16.7, "unit": "mg/kg"}, {"measurement": "Ratio", "setting": "[25]", "value": 23.1}, {"measurement": "LD90", "setting": "[26]", "value": 66.7, "unit": "µg/g"}, {"measurement": "LD50", "setting": "[26]; Helicoverpa assulta, GZ3, 48 h", "value": 20.8, "unit": "mg/kg"}, {"measurement": "Ratio", "setting": "[27]", "value": 14.6}, {"measurement": "LD90", "setting": "[28]", "value": 37.7, "unit": "µg/g"}, {"measurement": "LD50", "setting": "[28]; Helicoverpa assulta, YN5, 48 h", "value": 14.3, "unit": "mg/kg"}, {"measurement": "Ratio", "setting": "[29]", "value": 18.4}, {"measurement": "Ratio", "setting": "[30]", "value": 12.7}, {"measurement": "LD90", "setting": "[31]", "value": 84.1, "unit": "µg/g"}, {"measurement": "LD50", "setting": "[31]; Helicoverpa assulta, YN2, 48 h", "value": 26.6, "unit": "mg/kg"}, {"measurement": "LD90", "setting": "[32]", "value": 44.7, "unit": "µg/g"}, {"measurement": "LD50", "setting": "[32]; Helicoverpa assulta, AH3, 48 h", "value": 18.4, "unit": "mg/kg"}, {"measurement": "LD90", "setting": "[33]", "value": 59.6, "unit": "µg/g"}, {"measurement": "LD50", "setting": "[33]; Helicoverpa assulta, AH2, 48 h", "value": 22.1, "unit": "mg/kg"}, {"measurement": "LD90", "setting": "[34]", "value": 78.5, "unit": "µg/g"}, {"measurement": "LD50", "setting": "[34]; Helicoverpa assulta, YN3, 48 h", "value": 33.3, "unit": "mg/kg"}]}]}
